Data taken from the NIST ThermoML archive (doi:10.1016/j.jct.2008.12.021).
± gives the expanded uncertainty stated by the source.

Assay: osmotic coefficient (dimensionless); mn = molality of the nth substance listed, in mol/kg
Details: 323.15 K, Liquid, vapour pressure osmometer

CCCCn1cc[n+](C)c1.COS(=O)(=O)[O-] [1-butyl-3-methylimidazolium methyl sulfate] + CCCO
osmotic coefficient (m1 = 0.0437): 0.873 ± 0.013 | osmotic coefficient (m1 = 0.0547): 0.829 ± 0.013 | osmotic coefficient (m1 = 0.2041): 0.691 ± 0.016 | osmotic coefficient (m1 = 0.3571): 0.639 ± 0.018 | osmotic coefficient (m1 = 0.5002): 0.628 ± 0.018 | osmotic coefficient (m1 = 0.6627): 0.628 ± 0.018 | osmotic coefficient (m1 = 0.8487): 0.629 ± 0.018 | osmotic coefficient (m1 = 1.007): 0.629 ± 0.018 | osmotic coefficient (m1 = 1.28): 0.628 ± 0.018 | osmotic coefficient (m1 = 1.665): 0.62 ± 0.018 | osmotic coefficient (m1 = 2.143): 0.599 ± 0.019 | osmotic coefficient (m1 = 2.937): 0.581 ± 0.019

CCCCn1cc[n+](C)c1.COS(=O)(=O)[O-] [1-butyl-3-methylimidazolium methyl sulfate] + CCO
osmotic coefficient (m1 = 0.0495): 0.78 ± 0.014 | osmotic coefficient (m1 = 0.0783): 0.716 ± 0.016 | osmotic coefficient (m1 = 0.176): 0.646 ± 0.017 | osmotic coefficient (m1 = 0.3283): 0.573 ± 0.019 | osmotic coefficient (m1 = 0.3907): 0.55 ± 0.02 | osmotic coefficient (m1 = 0.5167): 0.529 ± 0.021 | osmotic coefficient (m1 = 0.6846): 0.508 ± 0.021 | osmotic coefficient (m1 = 0.9851): 0.496 ± 0.021 | osmotic coefficient (m1 = 1.318): 0.499 ± 0.021 | osmotic coefficient (m1 = 1.727): 0.48 ± 0.022 | osmotic coefficient (m1 = 2.093): 0.474 ± 0.022 | osmotic coefficient (m1 = 2.507): 0.465 ± 0.022 | osmotic coefficient (m1 = 2.914): 0.448 ± 0.023 | osmotic coefficient (m1 = 3.311): 0.424 ± 0.024 | osmotic coefficient (m1 = 3.697): 0.408 ± 0.024

COS(=O)(=O)[O-].Cn1cc[n+](C)c1 [1,3-dimethylimidazolium methylsulfate] + CCO
osmotic coefficient (m1 = 0.0289): 0.815 ± 0.014 | osmotic coefficient (m1 = 0.0374): 0.794 ± 0.014 | osmotic coefficient (m1 = 0.0789): 0.719 ± 0.016 | osmotic coefficient (m1 = 0.0991): 0.687 ± 0.016 | osmotic coefficient (m1 = 0.1941): 0.626 ± 0.018 | osmotic coefficient (m1 = 0.3285): 0.56 ± 0.02 | osmotic coefficient (m1 = 0.4326): 0.53 ± 0.021 | osmotic coefficient (m1 = 0.5312): 0.503 ± 0.021 | osmotic coefficient (m1 = 0.6925): 0.479 ± 0.022 | osmotic coefficient (m1 = 0.9868): 0.449 ± 0.023 | osmotic coefficient (m1 = 1.284): 0.424 ± 0.024 | osmotic coefficient (m1 = 1.699): 0.399 ± 0.024 | osmotic coefficient (m1 = 2.078): 0.382 ± 0.025 | osmotic coefficient (m1 = 2.489): 0.363 ± 0.026 | osmotic coefficient (m1 = 2.937): 0.345 ± 0.026 | osmotic coefficient (m1 = 3.314): 0.326 ± 0.027 | osmotic coefficient (m1 = 3.709): 0.325 ± 0.027 | osmotic coefficient (m1 = 4.016): 0.331 ± 0.027

COS(=O)(=O)[O-].Cn1cc[n+](C)c1 [1,3-dimethylimidazolium methylsulfate] + CCCO
osmotic coefficient (m1 = 0.0512): 0.848 ± 0.013 | osmotic coefficient (m1 = 0.079): 0.772 ± 0.014 | osmotic coefficient (m1 = 0.0997): 0.727 ± 0.015 | osmotic coefficient (m1 = 0.2023): 0.67 ± 0.017 | osmotic coefficient (m1 = 0.2902): 0.59 ± 0.019 | osmotic coefficient (m1 = 0.3952): 0.544 ± 0.02 | osmotic coefficient (m1 = 0.488): 0.526 ± 0.021 | osmotic coefficient (m1 = 0.6881): 0.492 ± 0.022 | osmotic coefficient (m1 = 0.9815): 0.454 ± 0.023 | osmotic coefficient (m1 = 1.299): 0.432 ± 0.023 | osmotic coefficient (m1 = 1.691): 0.396 ± 0.025 | osmotic coefficient (m1 = 2.097): 0.375 ± 0.025 | osmotic coefficient (m1 = 2.545): 0.36 ± 0.026 | osmotic coefficient (m1 = 2.929): 0.343 ± 0.026 | osmotic coefficient (m1 = 3.323): 0.334 ± 0.026 | osmotic coefficient (m1 = 3.71): 0.322 ± 0.027

CCCCn1cc[n+](C)c1.COS(=O)(=O)[O-] [1-butyl-3-methylimidazolium methyl sulfate] + CC(C)O
osmotic coefficient (m1 = 0.0524): 0.95 ± 0.012 | osmotic coefficient (m1 = 0.0842): 0.905 ± 0.012 | osmotic coefficient (m1 = 0.1084): 0.871 ± 0.013 | osmotic coefficient (m1 = 0.2087): 0.799 ± 0.014 | osmotic coefficient (m1 = 0.3036): 0.733 ± 0.015 | osmotic coefficient (m1 = 0.4106): 0.685 ± 0.016 | osmotic coefficient (m1 = 0.4869): 0.648 ± 0.017 | osmotic coefficient (m1 = 0.682): 0.588 ± 0.019 | osmotic coefficient (m1 = 0.9823): 0.523 ± 0.021 | osmotic coefficient (m1 = 1.32): 0.493 ± 0.022 | osmotic coefficient (m1 = 1.692): 0.488 ± 0.022 | osmotic coefficient (m1 = 2.05): 0.502 ± 0.021 | osmotic coefficient (m1 = 2.446): 0.48 ± 0.022 | osmotic coefficient (m1 = 2.829): 0.455 ± 0.023 | osmotic coefficient (m1 = 3.311): 0.451 ± 0.023

COS(=O)(=O)[O-].Cn1cc[n+](C)c1 [1,3-dimethylimidazolium methylsulfate] + CC(C)O
osmotic coefficient (m1 = 0.0241): 0.914 ± 0.012 | osmotic coefficient (m1 = 0.0557): 0.846 ± 0.013 | osmotic coefficient (m1 = 0.2089): 0.683 ± 0.016 | osmotic coefficient (m1 = 0.3053): 0.614 ± 0.018 | osmotic coefficient (m1 = 0.3982): 0.588 ± 0.019 | osmotic coefficient (m1 = 0.6947): 0.509 ± 0.021 | osmotic coefficient (m1 = 0.9721): 0.461 ± 0.023 | osmotic coefficient (m1 = 1.274): 0.442 ± 0.023 | osmotic coefficient (m1 = 1.66): 0.416 ± 0.024 | osmotic coefficient (m1 = 2.058): 0.392 ± 0.025 | osmotic coefficient (m1 = 2.447): 0.364 ± 0.025 | osmotic coefficient (m1 = 2.827): 0.343 ± 0.026 | osmotic coefficient (m1 = 3.313): 0.329 ± 0.027 | osmotic coefficient (m1 = 3.712): 0.323 ± 0.027 | osmotic coefficient (m1 = 4.112): 0.298 ± 0.028
